Experiment: xn = mol fraction of the nth substance listed
Conditions: Liquid, Vibrating tube method

CCCCCCCO [heptan-1-ol] + CCCCOCCCC
mass density [kg/m3]
Conditions | x2 = 0 | x2 = 0.1488 | x2 = 0.3201 | x2 = 0.4944 | x2 = 0.7014 | x2 = 0.8534
373.15 K, 50000 kPa | 800.3 | 792.1 | 782.7 | 774 | 763.4 | 756.5
373.15 K, 55000 kPa | 803.4 | 795.2 | 786 | 777.5 | 767.1 | 760.3
373.15 K, 60000 kPa | 806.3 | 798.3 | 789.2 | 780.8 | 770.6 | 763.9
373.15 K, 65000 kPa | 809.2 | 801.3 | 792.3 | 784 | 774 | 767.4
373.15 K, 70000 kPa | 811.9 | 804.1 | 795.3 | 787.1 | 777.2 | 770.6
373.15 K, 80000 kPa | 817.2 | 809.7 | 801.1 | 793.1 | 783.5 | 777.1
373.15 K, 90000 kPa | 822.3 | 814.9 | 806.5 | 798.7 | 789.3 | 783.1
373.15 K, 100000 kPa | 827 | 819.8 | 811.5 | 803.9 | 794.8 | 788.7
373.15 K, 110000 kPa | 831.6 | 824.5 | 816.5 | 809.1 | 800 | 794
373.15 K, 120000 kPa | 835.9 | 829 | 821.1 | 813.8 | 805 | 799.1
373.15 K, 130000 kPa | 840.2 | 833.4 | 825.6 | 818.4 | 809.8 | 803.9
373.15 K, 140000 kPa | 844.1 | 837.4 | 829.8 | 822.8 | 814.3 | 808.6
393.15 K, 100 kPa | 744.9 | – | – | – | – | –
393.15 K, 1000 kPa | 745.8 | 734.9 | 722.5 | 710.7 | 696.6 | 687.4
393.15 K, 5000 kPa | 750.2 | 739.7 | 727.6 | 716.3 | 702.7 | 693.9
393.15 K, 10000 kPa | 755.3 | 745.1 | 733.5 | 722.7 | 709.7 | 701.2
393.15 K, 15000 kPa | 760.1 | 750.3 | 739 | 728.6 | 716 | 708
393.15 K, 20000 kPa | 764.6 | 755.1 | 744.2 | 734 | 721.9 | 714
393.15 K, 25000 kPa | 768.8 | 759.6 | 749 | 739.1 | 727.4 | 719.7
393.15 K, 30000 kPa | 772.9 | 763.8 | 753.5 | 743.9 | 732.4 | 725
393.15 K, 35000 kPa | 776.8 | 767.9 | 757.8 | 748.5 | 737.3 | 730
393.15 K, 40000 kPa | 780.4 | 771.8 | 761.9 | 752.7 | 741.8 | 734.8
393.15 K, 45000 kPa | 783.9 | 775.4 | 765.8 | 756.8 | 746 | 739.1
393.15 K, 50000 kPa | 787.3 | 779 | 769.4 | 760.7 | 750.1 | 743.4
393.15 K, 55000 kPa | 790.7 | 782.5 | 773.2 | 764.5 | 754.2 | 747.5
393.15 K, 60000 kPa | 793.8 | 785.7 | 776.5 | 768 | 757.9 | 751.3
393.15 K, 65000 kPa | 796.8 | 788.9 | 779.8 | 771.4 | 761.5 | 755
393.15 K, 70000 kPa | 799.8 | 792 | 783.1 | 774.9 | 765 | 758.7
393.15 K, 80000 kPa | 805.5 | 797.8 | 789.2 | 781.2 | 771.6 | 765.4
393.15 K, 90000 kPa | 810.9 | 803.5 | 795 | 787.2 | 777.9 | 771.8
393.15 K, 100000 kPa | 815.9 | 808.6 | 800.4 | 792.8 | 783.6 | 777.7
393.15 K, 110000 kPa | 820.8 | 813.7 | 805.6 | 798.2 | 789.3 | 783.5
393.15 K, 120000 kPa | 825.3 | 818.3 | 810.4 | 803.1 | 794.3 | 788.7
393.15 K, 130000 kPa | 829.8 | 822.9 | 815.1 | 808 | 799.4 | 793.8
393.15 K, 140000 kPa | 834 | 827.3 | 819.7 | 812.7 | 804.2 | 798.7

Reference: the NIST ThermoML archive (doi:10.1016/j.jct.2018.11.010)
